Experimental findings from ChEMBL document CHEMBL2380220, “Cytotoxic azaphilone alkaloids from Chaetomium globosum TY1” (Bioorg Med Chem Lett, 2013) are described below.

The test system of this test is HepG2. Nature of the test: Cytotoxicity against human HepG2 cells after 72 hrs by SRB assay. Type of test: functional, cell-based. To be noted: HepG2, 72 h. For orientation: In SRB staining, fixed cells bind dye roughly in proportion to their protein.
Compound `CC[C@H](C)/C=C/C1=CC2=C(Cl)C(=O)[C@@]3(C)OC(=O)C(C(=O)[C@H](C)[C@@H](C)O)=C3C2=CO1` displayed an IC50 of 35.3 µM. That is a double-digit micromolar value.

On to `C/C=C(\C)C(=O)C1=C2C3=COC(/C=C/[C@@H](C)CC)=CC3=C(Cl)C(=O)[C@@]2(C)OC1=O` [CHAETOVIRIDIN E], for which the IC50 was found to be 40.6 µM. This IC50 and that of the compound before are within 1.5-fold of each other.

The compound `CC[C@H](C)/C=C/C1=CC2=C(Cl)C(=O)[C@@]3(C)OC(=O)C(C(=O)[C@H](C)[C@@H](C)O)=C3C2=CN1CCO` had an IC50 of 53.4 µM.

Compound `C/C=C(\C)C(=O)C1=C2C3=CN(CCO)C(/C=C/[C@@H](C)CC)=CC3=C(Cl)C(=O)[C@@]2(C)OC1=O` registered an IC50 of 19.8 µM.

Take `CC[C@@]1(O)C(=O)OCc2c1cc1n(c2=O)Cc2cc3ccccc3nc2-1` [CAMPTOTHECIN]: inhibition was half-maximal at 32.3 µM (IC50).

In turn, `C/C=C(\C)C(=O)C1=C2C3=CN(CCCC(=O)O)C(/C=C/[C@@H](C)CC)=CC3=C(Cl)C(=O)[C@@]2(C)OC1=O` registered an IC50 of 1.7 µM.

`CC[C@H](C)/C=C/C1=CC2=C(Cl)C(=O)[C@@]3(C)OC4(O)C(C(=O)O[C@@H](C)[C@@H]4C)C3C2=CO1` (some centres not stated) displayed an IC50 of over 100 µM.

A word on the IC50: it is the midpoint of a concentration-inhibition curve. Read a high IC50 as weaker potency in that assay.
